Results: US11103432B2, “Use of 1,3 diglyceride in a topical composition for countering the weakening of the skin barrier” (PIERRE FABRE DERMO-COSMETIQUE, priority 2015, dated 2021)
“And” between values parts separate entries of the source, which are not always exact repeats. Equal entries are not always repeated. Where two headings read alike, the source gives them in different places.

Tests used:
[1] = ATR-FTIR of lipids extracted from forearm stratum corneum with added diglyceride (vCH2 vibration); type: physicochemical; conditions: 40° C., 3 μg of diglyceride for 30 μg of sample; for influence on the organisation of the intercorneocytory lipids (vCH2, FIG. 2): versus extract devoid of diglyceride
Excerpt: In order to evaluate the change in the organisation of the lipid phases of the stratum corneum, the inventors used infrared spectroscopy (ATR-FTIR: Attenuated total reflectance—Fourier transform infrared Spectroscopy) to analyse the variation, under the effect of the temperature, of the fundamental vibration bands of the vCH2 aliphatic chains of these lipids. More particularly, the position of the absorption band, corresponding to the stretching of the CH2, is located around wave number 2848 cm^−1. By way of example, an increase in the temperature of the surface of the skin causes a displacement of this bands to the higher wave numbers.
The study was carried out on lipids extracted from the stratum corneum of the forearm in order to have a model as close as possible to reality. We have used infrared spectroscopy (ATR-FTIR), to examine the variation, in function of temperature, of fundamental vCH2 vibration bands of aliphatic chains.
The tests were carried out in similar experimental conditions using lipids extracts from the forearm wherein a standardized quantity of diglyceride is added (3 μg of diglyceride for 30 μg of sample).
The test of the example 2 was reproduced with 1,2-distearoyl-rac-glycerol (1,2 diglyceride) and compared to the test carried out with glyceryl 1,3-distearate (1,3 diglyceride).

Human skin = experiment: Benzo[a]pyrene skin penetration study, Franz diffusion cell; type: in vitro ADME; conditions: for B(a)P at Surface, percentage of the applied dose (Mean) / B(a)P in Receptor fluid, percentage of the applied dose (Mean) / B(a)P in Skin, percentage of the applied dose (Mean) / B(a)P in Stratum corneum, percentage of the applied dose (Mean): n = 8
Method: (§1) In order to evaluate the impact of 1,3-diglycerides on the organization of stratum corneum lipids and barrier function, in vitro, skin penetration studies of a known pollutant (benzo[a]pyrene (B(a)P) has been developed and performed. On the same donors, FTIR (Fourier transform infrared) measurement and B(a)P skin penetration were assessed to link lipid organization and the “outside-in” skin barrier function modulations, when the skin is heated up to 42° C.
(§2) Secondly, the impact of pre-treatment with 3% and 15% of glyceryl 1,3 distearate formulated in dimethicone on the modification of the SC (stratum corneum) lipid organization and B(a)P skin penetration provoked by the temperature elevation has been evaluated.
(§3) • OECD Guidelines for the testing of chemicals: guideline 428, skin absorption: in vitro method (13 Apr. 2004); • SCCS Guidelines, basic criteria for the in-vitro assessment of dermal absorption of cosmetics ingredients, updated March 2006.
(§4) For the skin delivery study, two temperatures were set. The classical temperature at the surface of the skin for skin delivery studies is 32° C. This temperature corresponds to the temperature at the surface of the skin in vivo. […]
(§5) The skin penetration study was carried out on 8 donors, the same donor was used for all the conditions:
(§6) The study was carried out on 8 donors, the same donor was used for all the conditions. B(a)P recovery should be comprised between 85% and 115% of the applied dose, in accordance with OECD 428 and SCCS guidelines.
(§7) • % of the applied dose at surface, stratum corneum, skin and receptor fluid; • μg/cm^2 of B(a)P at surface, stratum corneum, skin and receptor fluid. Results were presented with 2 decimals for the percentages and the quantities in μg/cm^2. Formula used in this report: • Standard error of the mean: • sem=Sd/√n • Bioavailability:
(§8) Sum of the quantities found in the skin and receptor fluid.
(§9) The inter-group comparison was performed by a paired Student's t-test with Graph Pad Prism software. The statistical analysis can be interpreted if n>5.

[2] = tested on: intercorneocytory lipids of the skin; experiment: In vivo ATR-FTIR on the inner forearm of healthy volunteers after application of glyceryl 1,3-distearate; set-up: species or system human; conditions: for Δ νCH2, Average / Δ νCH2, single subjects: 40° C., versus control zone
Method: This study was carried out on health volunteers. The collection of infrared data was done through the intermediary of the ATR-FTIR sensor on the inner face of the forearm on a zone of 10 cm^2.
A treated zone (with application in vivo of glyceryl 1,3 distearate) and a control zone (without application of glyceryl 1,3 distearate) were determined.
Two concentrations in glyceryl 1,3-distearate were evaluated (table 2: 0.5 mg/cm^2 and table 3: 0.15 mg/cm^2).
At T0: the skin is first heated to between 30 and 45° C.
Then after application in vivo of glyceryl 1,3-distearate on the treated zone, an evaluation is made of the variation in the wave number associated with the vCH2 vibration comparatively to the reference measurement without product applied (control zone) at different times after T0: T 30 minutes, T 1 h30 minutes and T 4 hours.
Tables 2 and 3: express the variation of the wave number associated with the vCH2 vibration of the aliphatic chains of the intercorneocytory lipids at 40° C. in the presence of glyceryl 1,3-distearate comparatively to the reference measurement without glyceryl 1,3-distearate.

[3] = tested on: stratum corneum lipids of human skin explants; experiment: FTIR measurement of human skin explants with or without pre-treatment (position of CH2 symmetric stretching band)
Method: The skin samples were heated at the rate of 1° C./min, and spectra were collected between 28° C. and 43° C.
Lipids organization—FTIR measurement: After 30 min of pre-treatment, FTIR measurements were performed to evaluate the molecular organization of the lipid matrix in the stratum corneum. The procedure is based on the study of the position of the CH2 symmetric stretching band, around 2850 cm^−1, depending on the temperature: the skin samples were heated at the rate of 1° C./min and spectra were collected between 28° C. and 43° C. with and without pre-treatment. The position of the CH2 symmetric stretching band is characteristic of the lipid organization and can be related to the barrier function.
FTIR measurement of skin explant (position of CH2 symmetric stretching band) depending on the temperature;
FTIR measurements were performed on human skin explants (8 donors) with or without pre-treatment. The skin samples were heated at the rate of 1° C./min, and spectra were collected between 28° C. and 43° C.

[4] = Benzo[a]pyrene skin penetration study, Franz diffusion cell; type: in vitro ADME, human; conditions: human, without pre-treatment, 24 h, read-out: bioavailability (skin + receptor fluid) of benzo[a]pyrene, % of the dose applied to the skin
Method: as §1, §2, §3, §4, §5, §6, §7, §8, §9

[5] = 3% pre-treatment in dimethicone, 32° C., 24 h
[6] = 3% pre-treatment in dimethicone, 42° C., 24 h
[7] = 15% pre-treatment in dimethicone, 32° C., 24 h
[8] = 15% pre-treatment in dimethicone, 42° C., 24 h
[9] = 0.15 mg/cm^2 (table title), 30 min
[10] = 0.15 mg/cm^2 (table title), 1 h 30
[11] = 0.15 mg/cm^2 (table title), 4 h

CCCCCCCCCC(=O)OCC(O)COC(=O)CCCCCCCCC [1,3-dicaprin]
influence on the organisation of the intercorneocytory lipids (vCH2, FIG. 2) [1]: no influence

CCCCCCCCCCCCCCCCCC(=O)OCC(CO)OC(=O)CCCCCCCCCCCCCCCCC (racemic) [1,2-distearoyl-rac-glycerol]
Δ νCH2: variation in the wave number of the νCH2 vibration of the aliphatic chains of the intercorneocytory lipids, with or without diglyceride [1]: -0.65 cm⁻¹

CCCCCCCCCCCC(=O)OCC(O)COC(=O)CCCCCCCCCCC [1,3-dilauroylglycerol]
influence on the organisation of the intercorneocytory lipids (vCH2, FIG. 2) [1]: no influence

CCCCCCCCCCCCCCCCCC(=O)OCC(O)COC(=O)CCCCCCCCCCCCCCCCC [glyceryl 1,3-distearate]
B(a)P at Surface, percentage of the applied dose (Mean) (Human skin; [5]): 94.66% | B(a)P in Receptor fluid, percentage of the applied dose (Mean) (Human skin; [5]): 0.05% | B(a)P in Skin, percentage of the applied dose (Mean) (Human skin; [5]): 2.09% | B(a)P in Stratum corneum, percentage of the applied dose (Mean) (Human skin; [5]): 0.82% | B(a)P at Surface, percentage of the applied dose (Mean) (Human skin; [6]): 90.39% | B(a)P in Receptor fluid, percentage of the applied dose (Mean) (Human skin; [6]): 0.17% | B(a)P in Skin, percentage of the applied dose (Mean) (Human skin; [6]): 5.18% | B(a)P in Stratum corneum, percentage of the applied dose (Mean) (Human skin; [6]): 0.90% | B(a)P at Surface, percentage of the applied dose (Mean) (Human skin; [7]): 94.99% | B(a)P in Receptor fluid, percentage of the applied dose (Mean) (Human skin; [7]): 0.04% | B(a)P in Skin, percentage of the applied dose (Mean) (Human skin; [7]): 1.87% | B(a)P in Stratum corneum, percentage of the applied dose (Mean) (Human skin; [7]): 0.77% | B(a)P at Surface, percentage of the applied dose (Mean) (Human skin; [8]): 92.68% | B(a)P in Receptor fluid, percentage of the applied dose (Mean) (Human skin; [8]): 0.15% | B(a)P in Skin, percentage of the applied dose (Mean) (Human skin; [8]): 4.40% | B(a)P in Stratum corneum, percentage of the applied dose (Mean) (Human skin; [8]): 0.75% | penetration of benzo[a]pyrene compared to the basal state and the vehicle (Human skin; dose of 3% or 15%, skin maintained in an atmosphere at 42° C.): significant decrease | Δ νCH2: variation in the wave number of the νCH2 vibration of the aliphatic chains of the intercorneocytory lipids, with or without diglyceride [1]: -1.43 cm⁻¹ | Δ νCH2, Average [2, 9]: -2.02 cm⁻¹ | Δ νCH2, single subjects [2, 9]: -1.87 cm⁻¹ and -2.16 cm⁻¹ | Δ νCH2, Average [2, 10]: -2.08 cm⁻¹ | Δ νCH2, single subjects [2, 10]: -1.91 cm⁻¹ and -2.25 cm⁻¹ | Δ νCH2, Average [2, 11]: -1.89 cm⁻¹ | Δ νCH2, single subjects [2, 11]: -1.64 cm⁻¹ and -2.15 cm⁻¹ | Δ νCH2, Average ([2]; 0.5 mg/cm^2, 30 min): -2.46 cm⁻¹ | Δ νCH2, single subjects ([2]; 0.5 mg/cm^2, 30 min): -2.56 cm⁻¹ and -3.02 cm⁻¹ and -2.71 cm⁻¹ | Δ νCH2, Average ([2]; 0.5 mg/cm^2, 1 h 30): -2.41 cm⁻¹ | Δ νCH2, single subjects ([2]; 0.5 mg/cm^2, 1 h 30): -2.65 cm⁻¹ and -2.62 cm⁻¹ and -2.6 cm⁻¹ | Δ νCH2, Average ([2]; 0.5 mg/cm^2, 4 h): -2.17 cm⁻¹ | Δ νCH2, single subjects ([2]; 0.5 mg/cm^2, 4 h): -2.6 cm⁻¹ and -2.29 cm⁻¹ and -2.18 cm⁻¹ | persistence of the stabilising effect after application ([2]; skin heated between 30 and 45° C.): at least 4 hours | organisation of the intercorneocytory spaces of the skin ([2]; skin heated between 30 and 45° C., normal conditions of use): stabilise the organisation of the intercorneocytory spaces | position of the CH2 symmetric stretching band ([3]; 3% in dimethicone as pre-treatment, 30 min, 43° C., basal 2852.12): 2848.7 cm⁻¹ | shift of the CH2 symmetric stretching band induced by the heating of the skin ([3]; 3% pre-treatment, 28° C. to 43° C., 0.81 without pre-treatment): 0.05 cm⁻¹ | impact of the heating on the lipid organization ([3]; pre-treatment with 3% or 15%, T tests, p value<0.05): decrease significantly

c1ccc2c(c1)cc1ccc3cccc4ccc2c1c34 [B(a)P, benzo[a]pyrene, reference compound]
B(a)P concentration in the receptor fluid corresponding to the worst case (Human skin; human): 12.51 µg/L | percentage of B(a)P found in the receptor fluid, worst case (Human skin; human): 0.13 % of the applied dose | B(a)P recovered at the surface, % of the applied dose (Human skin; human, 24 h): up to 94.5% | bioavailability (skin + receptor fluid) of benzo[a]pyrene, % of the dose applied to the skin (Human skin; without pre-treatment, skin temperature 32° C., 24 h): 2.95% | bioavailability at 24 h ([4]; skin temperature 32° C.): ≤ 2.95% | bioavailability at 24 h ([4]; skin temperature 42° C.): 6.95%
